The values below come from patent publication US7309491B2, “Heat shock protein-based vaccines and immunotherapies” (priority 2003, dated 2007).

Experiment [1] deals with T cells of HHD II mice bearing human HLA-A2. To be noted: mouse, in vivo.
Experiment [2] deals with recombinant human or murine heat shock protein 70 (hsp70). Put plainly: Scatchard analysis of labeled reference hybrid antigen binding to hsp70. To be noted: 39% PBS, 20 mM THAM pH 8, 37 mM NaCl, 5 mM MgCl2, 1 mM ADP.
For experiment [3] the target is unchanged. Put plainly: hsp70 binding inhibition assay (Hill plots) relative to labeled reference hybrid antigen. To be noted: read-out: Kd for hsp70 binding, antigenic domains alone.
In another experiment the test system is CD8+ T cells. The experiment is classed as in vivo, B6 mice. To be noted: mouse, in vivo.
The subject of experiment [4] is SIINFEKL-pulsed target cells. More on the design: species or system mice. The following applies: mouse, in vivo.

NLLRLTGWFFRKIMDQVPFSV: in experiment [1], the “Number of Spots per 400,000 cells: IMD” value is reported as 27 ± 5.1 spots per 400,000 cells, the “Number of Spots per 400,000 cells: Medium control” value is 0.0 ± 0.0 spots per 400,000 cells, the “Number of Spots per 400,000 cells: Unpulsed control” value is 0.0 ± 0.0 spots per 400,000 cells and the “Number of Spots per 400,000 cells: YMD control” value is recorded as 2.0 ± 2.0 spots per 400,000 cells.

Take ALFDIESKVGSGHWDFAWPW: the Kd in experiment [2] (fluoresceinated label) was determined as 10.8 µM; in experiment [2] (tritiated label), 22.6 µM.

As to RGYVYQGL, the Kd in experiment [3] amounted to 82 µM.

As to NLLRLTGWRKSIINFEKL, in the experiment with CD8+ T cells, the “Number of Spots per 400,000 cells: Con A positive control” value is 842 ± 73 spots per 400,000 cells, the “Number of Spots per 400,000 cells: Medium control” value was 1.0 ± 1.0 spots per 400,000 cells, the “Number of Spots per 400,000 cells: Unpulsed control” value is recorded as 1.0 ± 1.0 spots per 400,000 cells and the “Number of spots per 400,000 cells: SIINFEKL (SEQ ID NO:868)” value was 24 ± 1 spots per 400,000 cells. Besides, the “Number of spots per 400,000 cells: VSV control” value in the experiment with CD8+ T cells was 5.0 ± 3.0 spots per 400,000 cells. Moreover, the “CTL % killing at 200:1 E/T” value in experiment [4] worked out at 24%.

“NLLRLTGWFFRKSSWDFITV (SEQ ID NO:911) (Hybrid antigen)”: in the experiment on CD8+ T cells, the “Number of Spots per 300,000 cells, Medium” value is 0.7 ± 0.8 Spots per 300,000 cells; the “Number of Spots per 300,000 cells, Response to Class I epitope when Class I and Class II hybrid antigen admixture is administered” value is listed as 98 ± 5.8 Spots per 300,000 cells; the “Number of Spots per 300,000 cells, Response to Class I epitope when Class I hybrid antigen administered” value was 18 ± 0.7 Spots per 300,000 cells; the “Number of Spots per 300,000 cells, Splenocytes” value is 0.7 ± 0.4 Spots per 300,000 cells.

For the sequence “NLLRLTGWFFRKDAPIYTNV (SEQ ID NO:910) (Hybrid antigen)”, in the experiment on CD8+ T cells, the “Number of Spots per 300,000 cells, Medium” value is 0.7 ± 0.4 Spots per 300,000 cells; the “Number of Spots per 300,000 cells, Response to Class I epitope when Class I and Class II hybrid antigen admixture is administered” value is listed as 13 ± 3.9 Spots per 300,000 cells; the “Number of Spots per 300,000 cells, Response to Class I epitope when Class I hybrid antigen administered” value is listed as 2 ± 1.9 Spots per 300,000 cells; the “Number of Spots per 300,000 cells, Splenocytes” value was 0 ± 0 Spots per 300,000 cells.

On to “NLLRLTGWFFRKRTFSFQLI (SEQ ID NO:912) (Hybrid antigen)”, for which, in the experiment with CD8+ T cells, the “Number of Spots per 300,000 cells, Medium” value is recorded as 0.3 ± 0.4 Spots per 300,000 cells; the “Number of Spots per 300,000 cells, Response to Class I epitope when Class I and Class II hybrid antigen admixture is administered” value was 43 ± 7.6 Spots per 300,000 cells; the “Number of Spots per 300,000 cells, Response to Class I epitope when Class I hybrid antigen administered” value is 5.3 ± 1.5 Spots per 300,000 cells; the “Number of Spots per 300,000 cells, Splenocytes” value is recorded as 0 ± 0 Spots per 300,000 cells.
